± gives the expanded uncertainty stated by the source.
Test: mn = molality of the nth substance listed, in mol/kg
Settings: 101 kPa, Liquid; for mass density: Vibrating tube method; for speed of sound: Pulse-echo method

O=S(=O)([O-])C(F)(F)F.[Na+] [sodium trifluoromethanesulfonate] + CC(=O)N(C)C
Settings | mass density, 283.15 K [kg/m3] | mass density, 293.15 K [kg/m3] | mass density, 298.15 K [kg/m3] | mass density, 303.15 K [kg/m3] | mass density, 313.15 K [kg/m3] | mass density, 323.15 K [kg/m3] | mass density, 333.15 K [kg/m3] | speed of sound, 298.15 K [m/s]
m1 = 0.03102 | 953.06 ± 0.3 | 943.85 ± 0.3 | 939.25 ± 0.3 | 934.64 ± 0.3 | 925.39 ± 0.31 | 916.13 ± 0.31 | 906.83 ± 0.31 | –
m1 = 0.04251 | 954.18 ± 0.31 | 944.96 ± 0.3 | 940.36 ± 0.3 | 935.76 ± 0.31 | 926.52 ± 0.31 | 917.26 ± 0.31 | 907.96 ± 0.31 | –
m1 = 0.05604 | 955.5 ± 0.31 | 946.28 ± 0.31 | 941.68 ± 0.31 | 937.08 ± 0.31 | 927.84 ± 0.31 | 918.59 ± 0.31 | 909.29 ± 0.31 | 1456 ± 1.2
m1 = 0.07266 | 957.11 ± 0.31 | 947.9 ± 0.31 | 943.3 ± 0.31 | 938.69 ± 0.31 | 929.46 ± 0.31 | 920.21 ± 0.31 | 910.92 ± 0.31 | 1455.8 ± 1.3
m1 = 0.08844 | 958.64 ± 0.31 | 949.43 ± 0.31 | 944.83 ± 0.31 | 940.23 ± 0.31 | 931 ± 0.31 | 921.75 ± 0.31 | 912.46 ± 0.31 | 1455.7 ± 1.3
m1 = 0.1113 | 960.86 ± 0.31 | 951.66 ± 0.31 | 947.06 ± 0.31 | 942.45 ± 0.31 | 933.22 ± 0.31 | 923.98 ± 0.31 | 914.7 ± 0.31 | 1455.5 ± 1.3
m1 = 0.1446 | 964.1 ± 0.32 | 954.89 ± 0.31 | 950.29 ± 0.31 | 945.68 ± 0.31 | 936.46 ± 0.32 | 927.21 ± 0.31 | 917.94 ± 0.32 | 1455.2 ± 1.3
m1 = 0.174 | 966.97 ± 0.32 | 957.75 ± 0.32 | 953.15 ± 0.32 | 948.54 ± 0.32 | 939.35 ± 0.32 | 930.09 ± 0.32 | 920.85 ± 0.32 | 1455 ± 1.3
m1 = 0.2018 | 969.69 ± 0.32 | 960.49 ± 0.32 | 955.89 ± 0.32 | 951.28 ± 0.32 | 942.06 ± 0.32 | 932.83 ± 0.32 | 923.57 ± 0.32 | 1454.7 ± 1.3
m1 = 0.2378 | 973.2 ± 0.33 | 964 ± 0.33 | 959.39 ± 0.33 | 954.79 ± 0.33 | 945.58 ± 0.33 | 936.36 ± 0.33 | 927.11 ± 0.33 | 1454.3 ± 1.3
m1 = 0.2675 | 976.18 ± 0.33 | 966.97 ± 0.33 | 962.37 ± 0.33 | 957.77 ± 0.33 | 948.55 ± 0.33 | 939.32 ± 0.33 | 930.07 ± 0.33 | 1453.9 ± 1.3

O=S(=O)([O-])C(F)(F)F.[Na+] [sodium trifluoromethanesulfonate] + CN(C)C=O
Settings | mass density, 283.15 K [kg/m3] | mass density, 293.15 K [kg/m3] | mass density, 298.15 K [kg/m3] | mass density, 303.15 K [kg/m3] | mass density, 313.15 K [kg/m3] | mass density, 323.15 K [kg/m3] | mass density, 333.15 K [kg/m3] | speed of sound, 298.15 K [m/s]
m1 = 0.03242 | 961.31 ± 0.31 | 951.8 ± 0.31 | 947.04 ± 0.31 | 942.26 ± 0.31 | 932.69 ± 0.31 | 923.07 ± 0.31 | 913.39 ± 0.31 | –
m1 = 0.04301 | 962.37 ± 0.31 | 952.86 ± 0.31 | 948.1 ± 0.31 | 943.33 ± 0.31 | 933.75 ± 0.31 | 924.13 ± 0.31 | 914.46 ± 0.31 | –
m1 = 0.05649 | 963.72 ± 0.31 | 954.21 ± 0.31 | 949.44 ± 0.31 | 944.67 ± 0.31 | 935.1 ± 0.31 | 925.48 ± 0.31 | 915.81 ± 0.31 | –
m1 = 0.07002 | 965.07 ± 0.31 | 955.56 ± 0.31 | 950.8 ± 0.31 | 946.03 ± 0.31 | 936.46 ± 0.31 | 926.83 ± 0.31 | 917.16 ± 0.31 | 1456.8 ± 1.3
m1 = 0.08981 | 967.04 ± 0.31 | 957.54 ± 0.31 | 952.77 ± 0.31 | 948 ± 0.31 | 938.43 ± 0.31 | 928.81 ± 0.31 | 919.14 ± 0.31 | 1456.7 ± 1.3
m1 = 0.1114 | 969.21 ± 0.32 | 959.69 ± 0.32 | 954.93 ± 0.32 | 950.16 ± 0.32 | 940.6 ± 0.32 | 930.98 ± 0.32 | 921.31 ± 0.32 | 1456.6 ± 1.3
m1 = 0.1445 | 972.54 ± 0.32 | 963.02 ± 0.32 | 958.25 ± 0.32 | 953.48 ± 0.32 | 943.91 ± 0.32 | 934.29 ± 0.32 | 924.63 ± 0.32 | 1456.4 ± 1.3
m1 = 0.1748 | 975.61 ± 0.32 | 966.08 ± 0.32 | 961.32 ± 0.32 | 956.54 ± 0.32 | 946.97 ± 0.32 | 937.35 ± 0.32 | 927.69 ± 0.32 | 1456.2 ± 1.3
m1 = 0.2026 | 978.41 ± 0.33 | 968.91 ± 0.33 | 964.12 ± 0.33 | 959.34 ± 0.33 | 949.76 ± 0.32 | 940.13 ± 0.32 | 930.5 ± 0.32 | 1456.1 ± 1.3
m1 = 0.239 | 982.12 ± 0.33 | 972.58 ± 0.33 | 967.82 ± 0.33 | 963.03 ± 0.33 | 953.44 ± 0.33 | 943.82 ± 0.33 | 934.15 ± 0.33 | 1455.9 ± 1.3
m1 = 0.2681 | 985.09 ± 0.33 | 975.55 ± 0.33 | 970.79 ± 0.33 | 966.01 ± 0.33 | 956.41 ± 0.33 | 946.79 ± 0.33 | 937.1 ± 0.33 | 1455.7 ± 1.3
